Key:
[1] = Angle of repose (AoR/AOR) of powder; type: physicochemical
From the text: Both of these ibuprofen powders could not be fluidized sufficiently prior to coating, yet both of the coated ibuprofen particles were well fluidized after dry coating.
The operating conditions for coating step 2 may be established by a skilled person giving consideration, for example, to particle agglomeration and providing reduced angle of repose (AOR) values for the coated API powder. The degree of particle agglomeration may be determined by measuring the size of the coated particles in SEM images. The degree of agglomeration may also be estimated using the dispersion pressure titration in the Rodos/Helos system (Rodos and Helos, Sympatec, Lawrenceville, N.J., USA). A discussion of the pressure titration may be found in Han, X., Ghoroi, C., To, D., Chen, Y., Davë, R., “Simultaneous micronization and surface modification for improvement of flow and dissolution of drug particles (2011).” International Journal of Pharmaceutics, vol. 415, pp. 185-195, which is incorporated in its entirety by reference. The AOR may be measured using the procedure of ASTM D6393-99, “Bulk Solids Characterization by CARR Indices.” For example, when the Comil is used, the impeller speed may be optimized to reduce the agglomeration (FIG. 3) as higher impeller speed […] agglomerate size for the silica coated API powders.
M5P hydrophilic silica has a particle size of 20 nm and is manufactured by Cabot

[2] = Flow function coefficient (FFC), shear cell of FT 4 tester; type: physicochemical
[3] = finer ibuprofen powder, median size about 41 micron

Question: With `CC(C)Cc1ccc(C(C)C(=O)O)cc1` (centres unmarked) [ibuprofen] as the molecule, how does the AoR [1, 3] read?
Answer: The AoR was “about 58 degrees”.

Question: And the AOR ([1]; flow properties of ibuprofen before and after dry coating with silica)?
Answer: Its AOR is 55 °.

Question: What about the AoR ([1]; ibuprofen median particle size about 74 micron, Hosokawa Powder Tester, ASTM D6393-08) of the same molecule?
Answer: Its AoR is “about 55 degrees”.

Question: And the FFC [2, 3]?
Answer: Its FFC is “about 2.8”.

Question: What about the FFC ([2]; ibuprofen median particle size about 74 micron, pre-consolidation of 3 kPa) of the same molecule?
Answer: The FFC was “about 5”.

From patent US8993041B2, “Taste masked active pharmaceutical powder compositions and processes for making them” (New Jersey Institute of Technology, priority 2012, dated 2015)
